Tests used:
[1] = target: T1, Nox2 (Homo sapiens, UniProt P04839); assay: CBA probe assay of H2O2 production by PMA-activated dHL60 cells; format: cell-based; conditions: PMA (1 µM)-activated dHL60 cells, 30 min preincubation with inhibitor; read-out: IC50, inhibition of H2O2 production, CBA Assay
T1 construct: endogenous in cells
T1 sequence (P04839 2-570 limits assumed): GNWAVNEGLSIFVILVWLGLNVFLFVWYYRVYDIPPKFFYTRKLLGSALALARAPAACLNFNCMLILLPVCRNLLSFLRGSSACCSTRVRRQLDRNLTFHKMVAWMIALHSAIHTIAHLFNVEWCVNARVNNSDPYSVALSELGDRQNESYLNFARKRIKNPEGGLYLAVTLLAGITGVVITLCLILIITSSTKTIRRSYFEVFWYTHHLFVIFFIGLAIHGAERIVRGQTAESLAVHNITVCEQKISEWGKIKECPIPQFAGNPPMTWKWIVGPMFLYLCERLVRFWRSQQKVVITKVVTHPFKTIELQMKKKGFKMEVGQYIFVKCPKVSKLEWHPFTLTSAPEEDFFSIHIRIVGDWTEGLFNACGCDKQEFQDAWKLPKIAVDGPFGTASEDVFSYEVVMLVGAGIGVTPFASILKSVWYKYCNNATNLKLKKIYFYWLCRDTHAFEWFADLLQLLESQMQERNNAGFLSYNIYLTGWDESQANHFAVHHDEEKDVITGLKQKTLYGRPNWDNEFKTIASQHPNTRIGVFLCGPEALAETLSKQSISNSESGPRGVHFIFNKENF
T1 sequence (P13498 2-195 partner limits assumed): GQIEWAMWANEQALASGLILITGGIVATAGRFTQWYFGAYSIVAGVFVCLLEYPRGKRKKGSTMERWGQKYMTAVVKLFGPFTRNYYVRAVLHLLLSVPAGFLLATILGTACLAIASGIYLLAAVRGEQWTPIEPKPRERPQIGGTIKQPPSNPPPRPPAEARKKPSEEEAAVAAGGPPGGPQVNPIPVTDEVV
Procedure: Human promyelocytic leukemia HL60 cells (Sigma-Aldrich) were grown in RPMI 1640 medium (Gibco, 11875-093, Billings, MT, USA) supplemented with 10% FBS (Omega Scientific (Tarzana, CA, USA)), 100 units/mL penicillin, and 100 µg/mL streptomycin, and were incubated at 37 °C and 5% carbon dioxide (CO2). For differentiation to neutrophil-like cells, HL60 cells were pelleted and resuspended in fresh media containing 1 µM of all trans-retinoic acid and incubated for four to five days. Nox2 activation was achieved by treating differentiated HL60 (dHL60) cells with 1 µM PMA [24]. Human leukemia monocytic cells, THP-1, were grown in RPMI 1640 medium + GlutaMAX^TM (Gibco, 61870-036) and supplemented with 10% FBS, 10 mM HEPES, and 1 mM sodium pyruvate and incubated at 37 °C in 5% CO2 environment. To induce differentiation into macrophages, THP-1 cells were treated with PMA (100 ng/mL) for 48 h. To test the efficacy of Nox2 inhibitors, treatment was performed with or without the inhibitor, along with PMA [35].
Plate reader-based analyses of the production of O2^•− and H2O2 by PMA-activated dHL60 cells were performed according to a published protocol with minor modifications. Briefly, for the treatment of dHL60 cells with different concentrations of the compounds, 0.5 mL deep-well 96-well plates were used to dispense and store aliquots of their 10 mM DMSO solutions. Using a Multidrop™ PicoIT dispenser (Thermo Scientific), different volumes of the solutions of candidate Nox inhibitors (10 or 50 mM in DMSO) were injected into the bottom of 0.5 mL V-bottom 96-well plates; then, they were sealed with aluminum foil (VWR, Batavia, IL, USA) using a semiautomatic thermal sealer (BT LabSystems, St. Louis, MO, USA) and stored at −20 °C to reduce freeze-thawing the solutions. The plates with inhibitors were allowed to come to room temperature before the addition of the cell suspensions. dHL60 cells were pelleted and resuspended in HBSS (Invitrogen, Waltham, MA, USA) supplemented with 25 mM HEPES (pH 7.4) and 100 µM DTPA to a cell density of 2 × 10^5 cells/mL. dHL60 cells were added to the V-bottom plates at a volume of 210 µL/well. Next, cells were incubated with inhibitors for 30 min at 37 °C in a CO2-free incubator under ambient oxygen and then transferred to black, clear-bottom 96-well plates (200 µL/well) after incubation. Freshly prepared PMA plus probe solutions in HBSS (5× concentrated, 50 µL/well) included PMA (5 µM) with CBA (500 µM) or with Amplex Red (250 µM) plus HRP (0.5 U/mL) for H2O2 detection, or with HE (50 µM) plus DNA (0.5 mg/mL) for O2^•− detection. Once probes + PMA were added, plates were sealed with sealing film and immediately placed in the pre-warmed plate readers (37 °C). Fluorescence intensities were monitored kinetically from the bottom of the plates every 1.3 min for a period of 2 h using Beckman Coulter (Brea, CA, USA) DTX880 and BMG Labtech (Ortenberg, Germany) FLUOstar Omega plate readers. DMSO alone and DPI (10 µM) were used as negative and positive controls, respectively. […] The IC50 values were determined using at least five independent measurements, each consisting of technical quadruplicates per concentration.

[2] = target: T1, Nox2; assay: Rapid HPLC analysis of HE oxidation (2-OH-E+) for O2•− production by activated dHL60 cells; format: cell-based; conditions: 1 h incubation after PMA, Figure 5D,E
Procedure: For high-performance liquid chromatography (HPLC)-based analyses of superoxide production by activated dHL60 cells, the cells (0.8 mL, 2 × 10^5 cells/mL) were pretreated with inhibitors for 30 min, as described above, followed by the addition of 200 µL of the mixture of PMA (5 µM) and HE (50 µM); then, they were incubated for 1 h at 37 °C in the dark. Next, 0.5 mL aliquots of the cell suspensions were transferred into 1.5 mL microcentrifuge tubes prefilled with 10 µL of a mixture of 3,8-diamino-6-phenylphenanthridine (50 µM, used as an internal standard), superoxide dismutase, and catalase (5 mg/mL and 5 kU/mL, respectively, used to stop probe oxidation), and the tubes were centrifugated (5 min, 3000× g) to pellet the cells. Clear supernatants (0.2 mL) were transferred into HPLC vials and analyzed for HE, 2-hydroxyethidium (2–OH–E^+), ethidium (E^+), and diethidium (E^+–E^+) content, as described previously. Briefly, an Agilent 1100 HPLC system equipped with an Ascentis Express Phenyl-Hexyl column (50 mm × 4.6 mm, 2.7 µm, Supelco, Bellefonte, PA, USA) and absorption and fluorescence detectors was used. […] Samples (25 µL) were injected, and the products were detected by monitoring absorbance (290 and 370 nm) and fluorescence (exc. 370 nm, emi. 565 nm) signals.

- IC50 [1]: 4.3 ± 1.3 µM
SMILES: CN(C)CCCn1c(SCCc2c[nH]c3ccccc23)nc2ccc(F)cc2c1=O [TG15-132]
- HE consumption and 2-OH-E+ formation (HPLC) [2]: inhibited by cell pretreatment with TG15-132 in a dose-dependent manner

— article PMC10525516, “Novel NADPH Oxidase-2 Inhibitors as Potential Anti-Inflammatory and Neuroprotective Agents” (Antioxidants, 2023)
